Here are results for three molecules from patent US20180134683A1, “HETEROCYLCIC COMPOUNDS AS IDH2 INHIBITORS” (TELIGENE LTD., priority 2015, published 2018).

The solubility is the concentration that dissolves in the medium under given conditions.

≈ marks a conversion by molar mass, not a printed value. Read-outs that look alike come from different tables or passages of the source.

The target in one series is T1, c-MER (A708S) (Homo sapiens, UniProt Q12866, A708S).
T1 sequence (Q12866 21-999 A708S): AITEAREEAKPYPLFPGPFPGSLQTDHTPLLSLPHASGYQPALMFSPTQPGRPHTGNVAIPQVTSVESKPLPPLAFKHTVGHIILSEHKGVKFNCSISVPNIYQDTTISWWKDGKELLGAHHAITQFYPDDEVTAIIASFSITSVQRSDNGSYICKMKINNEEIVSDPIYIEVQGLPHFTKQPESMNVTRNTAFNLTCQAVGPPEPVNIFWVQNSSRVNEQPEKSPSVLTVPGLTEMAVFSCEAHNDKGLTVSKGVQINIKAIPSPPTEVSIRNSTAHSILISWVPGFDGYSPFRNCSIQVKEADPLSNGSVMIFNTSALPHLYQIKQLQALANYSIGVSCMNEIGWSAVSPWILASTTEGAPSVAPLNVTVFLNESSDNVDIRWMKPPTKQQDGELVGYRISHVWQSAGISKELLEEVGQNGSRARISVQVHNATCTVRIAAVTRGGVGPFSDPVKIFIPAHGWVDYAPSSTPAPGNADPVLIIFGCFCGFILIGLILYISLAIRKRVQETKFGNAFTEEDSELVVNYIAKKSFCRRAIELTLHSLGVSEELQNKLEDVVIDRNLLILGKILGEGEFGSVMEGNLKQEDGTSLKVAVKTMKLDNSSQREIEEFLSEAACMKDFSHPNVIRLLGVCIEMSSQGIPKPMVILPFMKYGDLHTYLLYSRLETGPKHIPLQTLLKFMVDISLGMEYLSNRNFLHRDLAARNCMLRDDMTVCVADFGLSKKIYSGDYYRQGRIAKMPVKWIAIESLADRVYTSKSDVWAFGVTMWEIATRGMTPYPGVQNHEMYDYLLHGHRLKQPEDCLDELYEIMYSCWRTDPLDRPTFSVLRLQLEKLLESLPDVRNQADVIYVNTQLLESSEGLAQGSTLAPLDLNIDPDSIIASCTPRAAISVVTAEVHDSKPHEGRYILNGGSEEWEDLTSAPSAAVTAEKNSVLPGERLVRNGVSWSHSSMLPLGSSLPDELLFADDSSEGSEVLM
The series is described as follows: In vitro kinase assay (33P-ATP, P81 filter). Particulars: for remaining activity at 10 µM: 10 μM compound, 10 μM ATP. It counts as biochemical. As to the method: (§1) These properties may be assesses, for example, using one or more of the procedures set out below: • An in vitro assay which determines the ability of a test compound to inhibit kinases. Conducts the kinase assay with the following condition and procedure: • Reagent: Base Reaction Buffer; 20 mM Hepes (pH 7.5), 10 mM MgCl2, 1 mM EGTA, 0.02% Brij35, 0.02 mg/ml BSA, 0.1 mM Na3VO4, 2 mM DTT, 1% DMSO.
(§2) • 1. Prepare indicated substrate in freshly prepared Base Reaction Buffer. • 2. Deliver any required cofactors to the substrate solution obtained in step 1. • 3. Deliver indicated kinase into the substrate solution prepared in step 2 and gently mix. • 4. Deliver compounds in DMSO into the kinase reaction mixture prepared in step 3. • 5. Deliver ^33P-ATP (specific activity 0.01 μCi/μl final) into the reaction mixture prepared in step 4 to initiate the reaction. • 6. Incubate kinase reaction for 120 min. at room temperature. • 7. Reactions are spotted onto P81 ion exchange paper (Whatman # 3698-915). • 8. Washing filters extensively in 0.75% Phosphoric acid. Compound was tested in single dose duplicate mode at a concentration of 10 μM, reactions were carried out at 10 μM ATP

The target of a further series is BRAF (G464V) (Homo sapiens, UniProt P15056, G464V). The experiment in a line: In vitro kinase assay (33P-ATP, P81 filter). Particulars: for remaining activity at 10 µM: 10 μM compound, 10 μM ATP. It counts as biochemical. As to the method:
as §1, §2

A further series deals with ALK (L1152 R) (Homo sapiens, UniProt Q9UM73, L1152R). The series is described as follows: In vitro kinase assay (33P-ATP, P81 filter). Particulars: for remaining activity at 10 µM: 10 μM compound, 10 μM ATP. It counts as biochemical. As to the method:
as §1, §2

Another series has as its target T2, AXL (R499C) (Homo sapiens, UniProt P30530, R499C).
T2 sequence (P30530 26-894 R499C): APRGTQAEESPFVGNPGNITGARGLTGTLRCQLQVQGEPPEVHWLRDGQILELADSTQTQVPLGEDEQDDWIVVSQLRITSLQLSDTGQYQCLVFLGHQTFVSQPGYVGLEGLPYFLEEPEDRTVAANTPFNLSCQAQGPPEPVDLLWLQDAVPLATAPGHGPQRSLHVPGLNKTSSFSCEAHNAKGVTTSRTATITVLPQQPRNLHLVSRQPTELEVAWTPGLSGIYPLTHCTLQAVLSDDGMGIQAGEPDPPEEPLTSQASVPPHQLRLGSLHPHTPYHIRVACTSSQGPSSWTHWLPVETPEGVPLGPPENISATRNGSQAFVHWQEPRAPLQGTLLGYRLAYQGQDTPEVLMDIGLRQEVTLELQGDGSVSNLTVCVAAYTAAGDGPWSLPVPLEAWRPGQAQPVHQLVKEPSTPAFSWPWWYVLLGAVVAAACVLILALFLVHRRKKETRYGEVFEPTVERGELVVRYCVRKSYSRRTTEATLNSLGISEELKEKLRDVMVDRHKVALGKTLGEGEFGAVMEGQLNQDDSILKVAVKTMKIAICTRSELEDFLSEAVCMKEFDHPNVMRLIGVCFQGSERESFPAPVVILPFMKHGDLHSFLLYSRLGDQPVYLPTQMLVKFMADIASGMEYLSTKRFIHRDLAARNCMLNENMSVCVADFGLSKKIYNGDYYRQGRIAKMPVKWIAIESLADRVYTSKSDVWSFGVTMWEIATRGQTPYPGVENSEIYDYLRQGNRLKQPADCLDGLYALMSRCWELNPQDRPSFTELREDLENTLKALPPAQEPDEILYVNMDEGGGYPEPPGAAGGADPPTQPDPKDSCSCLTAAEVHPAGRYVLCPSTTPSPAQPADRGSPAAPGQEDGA
The series is described as follows: In vitro kinase assay (33P-ATP, P81 filter). It counts as biochemical. Particulars: for remaining activity at 10 µM: 10 μM compound, 10 μM ATP. As to the method:
as §1, §2

The nature of series [1]: Solubility measurement (HPLC). Type of series: physicochemical. Particulars: for solubility at 30 min: aqueous buffer, thermodynamic from solid, 25° C. As to the method: Preparation of reference standard solution: 2 mg of Compound 17 or Compound 19 was added individually to 100 mL volumetric flask each. The compound was diluted with acetonitrile to 100 mL.
Preparation of sample solution: 2 mg of Compound 17 or Compound 19 was added individually to 2 mL eppendorf tube (EP), followed by addition of 1 mL of pH 7.0 or 4.0 buffer solution (20 mM). The solution was shook for 2 minutes and left for 30 minutes at 25° C. After standing for 30 minutes, precipitate was formed in the bottom of the EP. The solutions was filtered through 0.2 um membrane filter, and then diluted by 50 times with water.
The standard and sample solutions were injected into the HPLC on a Shim-Pack CLC-ODS C18 column (150mm×6.0mm, 5um) with the same volume. The mobile phase consisted of acetonitrile with 2% trichloromethane−20 mM KH2PO4 buffer (pH=7.0) at a flow rate of 1 mL/minutes (40:60). The detection wavelength is at 264 nm. Calculation: solubility of sample=the concentration of standard×Area of sample×50 /Area of standard.

Series [2] in a line: Pharmacokinetic (PK) profile.
The next series concerns the target T3, IDH2 R140Q (Homo sapiens, UniProt P48735, R140Q).
T3 sequence (P48735 40-452 R140Q): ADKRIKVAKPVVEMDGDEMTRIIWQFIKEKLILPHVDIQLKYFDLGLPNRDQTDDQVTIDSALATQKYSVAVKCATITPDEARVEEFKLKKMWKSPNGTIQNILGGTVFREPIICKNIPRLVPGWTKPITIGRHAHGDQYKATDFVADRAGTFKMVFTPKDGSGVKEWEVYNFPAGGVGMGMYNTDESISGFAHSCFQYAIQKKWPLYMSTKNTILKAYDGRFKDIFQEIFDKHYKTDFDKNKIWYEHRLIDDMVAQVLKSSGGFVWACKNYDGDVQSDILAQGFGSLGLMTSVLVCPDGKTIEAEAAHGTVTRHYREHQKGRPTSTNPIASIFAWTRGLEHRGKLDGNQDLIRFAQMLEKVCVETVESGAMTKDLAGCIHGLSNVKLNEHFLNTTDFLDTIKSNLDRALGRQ
The experiment in a line: IDH2 enzymatic assay (cofactor depletion assay). Type of series: biochemical. As to the method: Enzymatic Assay. Compounds were assayed for IDH2 R140Q inhibitory activity through a cofactor depletion assay. […] The reaction was terminated by the addition of a second enzyme, diaphorase, and a corresponding substrate, resazurin. Diaphorase reduces resazurin to the highly fluorescent resorufin with the concomitant oxidation of NADPH to NADP, both halting the IDH2 reaction by depleting the available cofactor pool and facilitating quantitation of the amount of cofactor remaining after a specific time period through quantitative production of an easily detected fluorophore. […] The compound was then incubated for one hour at room temperature with the enzyme; before starting the IDH2 reaction with the addition of 10 μl of substrate mix containing 50 μM NADPH and 6.3 mM a-KG in the buffer described above.

Where [3] appears, read: duplicate 1, read-out: % Enzyme Activity (relative to DMSO controls) Data 1.
The mark [4] stands for this setting: duplicate 2, read-out: % Enzyme Activity (relative to DMSO controls) Data 2.
Where [5] appears, read: pH 4.0 buffer solution (20 mM), read-out: Solubility at pH 4.0.
Where [6] appears, read: pH 7.0 buffer solution (20 mM), read-out: Solubility at pH 7.0.
Where [7] appears, read: IDH2 R140Q, one hour preincubation, 60 minutes reaction, read-out: Enzyme Inhibition IDH2.

Sequence of BRAF (G464V) (P15056 whole entry G464V): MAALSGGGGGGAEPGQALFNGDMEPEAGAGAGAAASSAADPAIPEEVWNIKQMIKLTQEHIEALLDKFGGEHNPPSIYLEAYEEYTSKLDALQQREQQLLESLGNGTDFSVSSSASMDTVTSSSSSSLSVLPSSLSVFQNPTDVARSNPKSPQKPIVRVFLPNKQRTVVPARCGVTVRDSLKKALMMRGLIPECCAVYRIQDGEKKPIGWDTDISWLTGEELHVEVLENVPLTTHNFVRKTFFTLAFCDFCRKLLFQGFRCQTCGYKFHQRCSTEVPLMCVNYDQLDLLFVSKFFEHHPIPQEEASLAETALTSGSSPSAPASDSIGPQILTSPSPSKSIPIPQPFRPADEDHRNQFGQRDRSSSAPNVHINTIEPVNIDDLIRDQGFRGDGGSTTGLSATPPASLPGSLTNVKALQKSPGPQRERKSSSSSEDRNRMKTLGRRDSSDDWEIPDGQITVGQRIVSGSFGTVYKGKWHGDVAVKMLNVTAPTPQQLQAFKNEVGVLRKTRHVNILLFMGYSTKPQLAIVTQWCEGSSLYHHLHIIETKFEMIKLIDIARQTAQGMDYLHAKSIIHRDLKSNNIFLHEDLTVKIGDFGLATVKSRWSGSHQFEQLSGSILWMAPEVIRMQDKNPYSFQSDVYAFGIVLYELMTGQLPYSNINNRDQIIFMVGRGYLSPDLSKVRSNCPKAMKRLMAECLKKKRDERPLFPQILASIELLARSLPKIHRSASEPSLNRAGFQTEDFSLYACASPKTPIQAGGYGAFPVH
Sequence of ALK (L1152 R) (Q9UM73 19-1620 L1152R): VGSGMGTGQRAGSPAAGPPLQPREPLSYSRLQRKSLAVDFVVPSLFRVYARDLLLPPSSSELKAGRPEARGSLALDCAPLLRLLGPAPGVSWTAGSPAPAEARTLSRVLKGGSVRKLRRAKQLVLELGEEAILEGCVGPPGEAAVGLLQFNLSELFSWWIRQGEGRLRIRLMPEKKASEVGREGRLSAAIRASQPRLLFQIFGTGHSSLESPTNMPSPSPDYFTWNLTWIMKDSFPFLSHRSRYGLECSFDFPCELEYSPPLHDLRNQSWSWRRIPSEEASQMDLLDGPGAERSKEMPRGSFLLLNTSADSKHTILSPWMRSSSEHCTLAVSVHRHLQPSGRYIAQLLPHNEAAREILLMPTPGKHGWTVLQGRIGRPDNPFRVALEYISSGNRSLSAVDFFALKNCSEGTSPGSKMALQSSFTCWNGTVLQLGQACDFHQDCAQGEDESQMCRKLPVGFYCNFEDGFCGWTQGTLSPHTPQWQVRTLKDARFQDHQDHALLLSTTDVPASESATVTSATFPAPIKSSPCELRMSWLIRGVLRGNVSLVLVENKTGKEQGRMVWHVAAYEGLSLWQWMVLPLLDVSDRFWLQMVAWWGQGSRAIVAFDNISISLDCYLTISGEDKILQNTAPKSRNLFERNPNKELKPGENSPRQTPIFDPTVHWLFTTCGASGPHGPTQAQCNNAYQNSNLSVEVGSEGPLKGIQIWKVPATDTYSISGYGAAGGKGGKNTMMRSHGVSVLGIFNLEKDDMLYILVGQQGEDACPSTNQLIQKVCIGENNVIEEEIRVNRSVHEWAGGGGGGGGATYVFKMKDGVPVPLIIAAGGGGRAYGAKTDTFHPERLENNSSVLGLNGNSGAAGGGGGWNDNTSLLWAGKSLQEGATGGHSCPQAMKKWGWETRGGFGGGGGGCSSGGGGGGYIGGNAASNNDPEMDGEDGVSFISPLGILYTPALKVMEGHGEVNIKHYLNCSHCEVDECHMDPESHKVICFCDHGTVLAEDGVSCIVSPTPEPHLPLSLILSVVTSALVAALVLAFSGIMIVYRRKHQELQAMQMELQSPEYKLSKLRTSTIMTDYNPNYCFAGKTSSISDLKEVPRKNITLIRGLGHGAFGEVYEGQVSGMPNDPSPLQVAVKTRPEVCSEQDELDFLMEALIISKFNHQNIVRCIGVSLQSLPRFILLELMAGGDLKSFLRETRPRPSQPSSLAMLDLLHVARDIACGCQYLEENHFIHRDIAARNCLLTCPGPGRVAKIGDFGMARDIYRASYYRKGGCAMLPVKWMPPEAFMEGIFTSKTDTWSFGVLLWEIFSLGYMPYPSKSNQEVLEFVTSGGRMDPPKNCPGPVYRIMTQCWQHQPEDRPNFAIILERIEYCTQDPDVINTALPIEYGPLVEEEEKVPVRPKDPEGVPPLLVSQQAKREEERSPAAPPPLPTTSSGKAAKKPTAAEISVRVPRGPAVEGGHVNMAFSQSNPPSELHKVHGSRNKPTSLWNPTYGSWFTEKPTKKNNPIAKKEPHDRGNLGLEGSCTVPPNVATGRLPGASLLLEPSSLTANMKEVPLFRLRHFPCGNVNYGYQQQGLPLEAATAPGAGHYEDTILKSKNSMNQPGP

Regarding `CN1CCN(c2nc(Nc3ccnc(C(F)(F)F)c3)nc(-c3cccc(C(F)(F)F)n3)n2)CC1` [Compound 17, 4-(4-methylpiperazin-1-yl)-6-(6-(trifluoromethyl)pyridin-2-yl)-N-(2-(trifluoromethyl)pyridin-4-yl)-1,3,5-triazin-2-amine], the remaining activity at 10 µM at c-MER (A708S) (setting [3]) came to 79.8%; at c-MER (A708S) (setting [4]), 79.5%; at BRAF (G464V) (setting [3]), 69.9%; at BRAF (G464V) (setting [4]) it was 68.9%; at ALK (L1152 R) (setting [3]), 79.2%; on ALK (L1152 R) (setting [4]) it was 78.9%. For the same molecule, the remaining activity at 10 µM on AXL (R499C) (setting [3]) amounted to 58.2%; on AXL (R499C) (setting [4]), 58.1%. Moreover, the “activity against kinase (in words)” value on c-MER (A708S) (panel of kinases), at BRAF (G464V) (panel of kinases), on ALK (L1152 R) (panel of kinases) and on AXL (R499C) (panel of kinases) was “active” each time. Moreover, in “Safety profile”, the “safety profile compared with Compound 19 (in words)” value is “favorable safety profile”. Besides, the solubility at 30 min was determined as 123 µg/mL (≈ 254 µM) in series [1] (setting [5]) and 0.276 µg/mL (≈ 0.57 µM) in series [1] (setting [6]). Further, the “solubility compared with Compound 19 (in words)” value in series [1] (pH=4.0) is reported as “much higher solubility”; in series [1] (pH=7.0), “better solubility”. Moreover, the “pharmacokinetic (PK) profile compared with Compound 19 (in words)” value in series [2] is given as “better pharmacokinecitc (PK)”. Moreover, at IDH2 R140Q (setting [7]), the IC50 is 262 nM.
Regarding `CN(C)c1nc(Nc2ccnc(C(F)(F)F)c2)nc(-c2cccc(C(F)(F)F)n2)n1` [Compound 18, N^2,N^2-dimethyl-6-(6-(trifluoromethyl)pyridin-2-yl)-N^4-(2-(trifluoromethyl)pyridin-4-yl)-1,3,5-triazine-2,4-diamine], the IC50 at IDH2 R140Q (setting [7]) came to 12.2 nM.
`CC(C)(O)CNc1nc(Nc2ccnc(C(F)(F)F)c2)nc(-c2cccc(C(F)(F)F)n2)n1` [Compound 19, reference compound]: the figures for the solubility at 30 min in series [1] (setting [5]) and in series [1] (setting [6]) were 1.59 µg/mL (≈ 3.36 µM) and 0.109 µg/mL (≈ 0.23 µM), respectively. At IDH2 R140Q, this molecule yielded an IC50 of 401 nM.
